In ChEMBL document CHEMBL5505985 (Eur J Med Chem, 2024):
Blank lines part the entries; values can stand above or below the molecule they belong to.

How the values were obtained:
RAW264.7 [1] = experiment: Cytotoxicity activity mouse RAW264.7 cells assessed as decrease in survival rate at 50 uM incubated for 48 hrs by MTT assay; format: toxicity, cell-based; conditions: raw264.7, 48 h
RAW264.7 [2] = experiment: Cytotoxicity activity mouse RAW264.7 cells assessed as reduction in cell viability at 10 uM incubated for 48 hrs by MTT assay; format: toxicity, cell-based; conditions: raw264.7, 48 h
[3] = target: T1, Prostaglandin G/H synthase 2 (Homo sapiens) (UniProt P35354); experiment: Inhibition of human recombinant COX-2 using arachidonic acid as substrate at 10 uM pretreated for 5 mins followed by substrate addition and measured after 2 mins by fluorescence based analysis relative to control; conditions: time 7.0 min
T1 sequence (whole entry): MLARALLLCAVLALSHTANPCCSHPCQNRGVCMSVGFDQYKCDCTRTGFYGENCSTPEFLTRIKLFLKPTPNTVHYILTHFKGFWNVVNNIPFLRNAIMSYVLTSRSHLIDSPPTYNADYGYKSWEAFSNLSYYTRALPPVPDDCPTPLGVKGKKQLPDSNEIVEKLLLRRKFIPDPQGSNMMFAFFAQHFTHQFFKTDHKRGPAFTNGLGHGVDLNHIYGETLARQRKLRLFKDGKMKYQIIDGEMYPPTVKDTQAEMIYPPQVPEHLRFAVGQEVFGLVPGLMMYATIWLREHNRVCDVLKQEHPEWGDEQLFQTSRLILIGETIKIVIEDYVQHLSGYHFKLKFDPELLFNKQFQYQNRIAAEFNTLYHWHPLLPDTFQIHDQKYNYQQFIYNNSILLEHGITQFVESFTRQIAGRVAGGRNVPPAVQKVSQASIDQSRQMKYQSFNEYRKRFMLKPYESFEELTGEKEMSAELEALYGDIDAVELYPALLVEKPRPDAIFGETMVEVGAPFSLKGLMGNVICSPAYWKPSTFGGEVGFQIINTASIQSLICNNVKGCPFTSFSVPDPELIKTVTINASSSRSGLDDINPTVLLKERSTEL

Structure (SMILES): Fc1ccc(C2=Nn3c(Cc4ccccc4Nc4c(Cl)cccc4Cl)nnc3SC2)cc1
Activity (RAW264.7 [1]): Toxic | Activity (RAW264.7 [2]): Non-Toxic

Structure (SMILES): Clc1cccc(Cl)c1Nc1ccccc1Cc1nnc(SCC2CCCCC2)o1
Activity (RAW264.7 [2]): Non-Toxic

Structure (SMILES): Clc1cccc(Cl)c1Nc1ccccc1Cc1nnc2n1N=C(c1ccccc1)CS2
Activity (RAW264.7 [2]): Non-Toxic

Structure (SMILES): Clc1cccc(Cl)c1Nc1ccccc1Cc1nnc2n1N=C(c1ccccc1Br)CS2
Activity (RAW264.7 [2]): Non-Toxic

inhibition [3]: < 30%
Structure (SMILES): Clc1ccc(CSc2nnc(Cc3ccccc3Nc3c(Cl)cccc3Cl)o2)cc1
Activity (RAW264.7 [2]): Non-Toxic

Structure (SMILES): Fc1cccc(C2=Nn3c(Cc4ccccc4Nc4c(Cl)cccc4Cl)nnc3SC2)c1
Activity (RAW264.7 [2]): Non-Toxic

Structure (SMILES): Fc1ccc(CSc2nnc(Cc3ccccc3Nc3c(Cl)cccc3Cl)o2)c(F)c1
Activity (RAW264.7 [2]): Non-Toxic

Structure (SMILES): Fc1ccc(CSc2nnc(Cc3ccccc3Nc3c(Cl)cccc3Cl)o2)cc1
Activity (RAW264.7 [2]): Non-Toxic

Structure (SMILES): COc1ccc(CSc2nnc(Cc3ccccc3Nc3c(Cl)cccc3Cl)o2)cc1
Activity (RAW264.7 [2]): Non-Toxic

inhibition [3]: < 30%
Structure (SMILES): Clc1cccc(CSc2nnc(Cc3ccccc3Nc3c(Cl)cccc3Cl)o2)c1
Activity (RAW264.7 [2]): Non-Toxic

Structure (SMILES): O=[N+]([O-])c1ccc(C2=Nn3c(Cc4ccccc4Nc4c(Cl)cccc4Cl)nnc3SC2)cc1
Activity (RAW264.7 [2]): Non-Toxic

Structure (SMILES): CCCCSc1nnc(Cc2ccccc2Nc2c(Cl)cccc2Cl)o1
Activity (RAW264.7 [2]): Non-Toxic

Structure (SMILES): Clc1cccc(C2=Nn3c(Cc4ccccc4Nc4c(Cl)cccc4Cl)nnc3SC2)c1
Activity (RAW264.7 [1]): Toxic | Activity (RAW264.7 [2]): Non-Toxic

Structure (SMILES): Clc1cccc(Cl)c1Nc1ccccc1Cc1nnc(SCc2cccc(Br)c2)o1
Activity (RAW264.7 [2]): Non-Toxic

Structure (SMILES): Fc1cccc(CSc2nnc(Cc3ccccc3Nc3c(Cl)cccc3Cl)o2)c1
Activity (RAW264.7 [2]): Non-Toxic

Structure (SMILES): O=C(Cc1ccccc1Nc1c(Cl)cccc1Cl)NN1C(=O)CCC1=O
Activity (RAW264.7 [2]): Non-Toxic

Structure (SMILES): Clc1cccc(Cl)c1Nc1ccccc1Cc1nnc(SCc2ccncc2)o1
Activity (RAW264.7 [1]): Toxic | Activity (RAW264.7 [2]): Non-Toxic

Structure (SMILES): Cc1cccc(CSc2nnc(Cc3ccccc3Nc3c(Cl)cccc3Cl)o2)c1
Activity (RAW264.7 [2]): Non-Toxic

Structure (SMILES): Cc1ccccc1CSc1nnc(Cc2ccccc2Nc2c(Cl)cccc2Cl)o1
Activity (RAW264.7 [2]): Non-Toxic

Structure (SMILES): COc1cccc(C2=Nn3c(Cc4ccccc4Nc4c(Cl)cccc4Cl)nnc3SC2)c1
Activity (RAW264.7 [2]): Non-Toxic

inhibition [3]: < 30%
Structure (SMILES): Clc1ccccc1CSc1nnc(Cc2ccccc2Nc2c(Cl)cccc2Cl)o1
Activity (RAW264.7 [2]): Non-Toxic

Structure (SMILES): O=C(Cc1ccccc1Nc1c(Cl)cccc1Cl)NN1C(=O)c2ccccc2C1=O
Activity (RAW264.7 [1]): Toxic | Activity (RAW264.7 [2]): Non-Toxic

Structure (SMILES): N#Cc1ccc(CSc2nnc(Cc3ccccc3Nc3c(Cl)cccc3Cl)o2)cc1
Activity (RAW264.7 [2]): Non-Toxic

Structure (SMILES): Clc1ccc(C2=Nn3c(Cc4ccccc4Nc4c(Cl)cccc4Cl)nnc3SC2)cc1
Activity (RAW264.7 [1]): Toxic | Activity (RAW264.7 [2]): Non-Toxic

Structure (SMILES): CCCSc1nnc(Cc2ccccc2Nc2c(Cl)cccc2Cl)o1
Activity (RAW264.7 [2]): Non-Toxic

Structure (SMILES): CCSc1nnc(Cc2ccccc2Nc2c(Cl)cccc2Cl)o1
Activity (RAW264.7 [2]): Non-Toxic

Structure (SMILES): Clc1cccc(Cl)c1Nc1ccccc1Cc1nnc(SC2CCCCC2)o1
Activity (RAW264.7 [2]): Non-Toxic

Structure (SMILES): Cc1ccc(CSc2nnc(Cc3ccccc3Nc3c(Cl)cccc3Cl)o2)cc1
Activity (RAW264.7 [2]): Non-Toxic

Structure (SMILES): Clc1cccc(Cl)c1Nc1ccccc1Cc1nnc2n1N=C(c1cccc(Br)c1)CS2
Activity (RAW264.7 [1]): Toxic | Activity (RAW264.7 [2]): Non-Toxic

Structure (SMILES): Clc1cccc(Cl)c1Nc1ccccc1Cc1nnc(SCc2ccccc2)o1
Activity (RAW264.7 [2]): Non-Toxic

Structure (SMILES): COc1ccc(C2=Nn3c(Cc4ccccc4Nc4c(Cl)cccc4Cl)nnc3SC2)cc1
Activity (RAW264.7 [2]): Non-Toxic

Structure (SMILES): Clc1cccc(Cl)c1Nc1ccccc1Cc1nnc2n1N=C(c1ccc(Br)cc1)CS2
Activity (RAW264.7 [2]): Non-Toxic

Structure (SMILES): CSc1nnc(Cc2ccccc2Nc2c(Cl)cccc2Cl)o1
Activity (RAW264.7 [2]): Non-Toxic

Structure (SMILES): CC(C)Sc1nnc(Cc2ccccc2Nc2c(Cl)cccc2Cl)o1
Activity (RAW264.7 [2]): Non-Toxic

Structure (SMILES): O=[N+]([O-])c1ccccc1C1=Nn2c(Cc3ccccc3Nc3c(Cl)cccc3Cl)nnc2SC1
Activity (RAW264.7 [2]): Non-Toxic

Structure (SMILES): Clc1cccc(Cl)c1Nc1ccccc1Cc1nnc(SCc2ccc(Br)cc2)o1
Activity (RAW264.7 [2]): Non-Toxic

Structure (SMILES): Fc1ccccc1CSc1nnc(Cc2ccccc2Nc2c(Cl)cccc2Cl)o1
Activity (RAW264.7 [2]): Non-Toxic
